Assay results taken from ChEMBL document CHEMBL1129164, “Molecular design, chemical synthesis and biological studies of novel enediynes related to dynemicin a” (Bioorg Med Chem Lett, 1996).
≈ marks a conversion by molar mass, not a printed value.

Key:
Assay type in all cases: functional, cell-based
HepG2 = assay: In vitro growth inhibition of Hep G2 ([…] line) human tumor cells.
SK-BR-3 = assay: In vitro growth inhibition of SK-BR-3 (breast cancer cell line) human tumor cells.
COLO 205 = assay: In vitro growth inhibition of COLO 205 (colon cell line) human tumor cells.
MOLT-4 = assay: In vitro growth inhibition of Molt-4 (leukemia cell line) human tumor cells.

| IC50 (HepG2) [mg/L] | IC50 (SK-BR-3) [mg/L] | IC50 (COLO 205) [mg/L] | IC50 (MOLT-4) [mg/L] | SMILES |
| --- | --- | --- | --- | --- |
| 50.2 (≈ 112 µM) | 43.9 (≈ 98 µM) | 53 (≈ 119 µM) | 5.63 (≈ 12.6 µM) | CCOC(=O)N1c2ccccc2C(=O)CC1C#C/C=C\C#CCS(=O)(=O)c1ccccc1 (stereo not drawn) |
| 3.75 (≈ 5.86 µM) | 6.26 (≈ 9.79 µM) | 5.33 (≈ 8.33 µM) | 0.73 (≈ 1.14 µM) | CCOC(=O)N1c2ccccc2[C@@H](S(=O)(=O)c2ccccc2)[C@H](O)C1C#Cc1ccccc1C#CCS(=O)(=O)c1ccccc1 (stereo partly drawn) |
| 9.01 (≈ 20.1 µM) | 19.5 (≈ 43.5 µM) | 26 (≈ 58 µM) | 5.5 (≈ 12.3 µM) | CCOC(=O)N1c2ccccc2[C@@H]2O[C@@H]2C1C#C/C=C\C#CCS(=O)(=O)c1ccccc1 (stereo partly drawn) |

More lines, now with the values behind:

| SMILES | IC50 (HepG2) [mg/L] | IC50 (SK-BR-3) [mg/L] | IC50 (COLO 205) [mg/L] | IC50 (MOLT-4) [mg/L] |
| --- | --- | --- | --- | --- |
| CCOC(=O)N1c2ccccc2[C@@H]2O[C@@H]2C1C#Cc1ccccc1C#CCS(=O)(=O)c1ccccc1 (stereo partly drawn) | 8.91 (≈ 17.9 µM) | 9.23 (≈ 18.6 µM) | 9.59 (≈ 19.3 µM) | 4.64 (≈ 9.33 µM) |
| CCOC(=O)N1c2ccccc2[C@@H](O)[C@H](O)C1C#C/C=C\C#CCS(=O)(=O)c1ccccc1 (stereo partly drawn) | 57.8 (≈ 124 µM) | 46.7 (≈ 100 µM) | 49.7 (≈ 107 µM) | 10.2 (≈ 21.9 µM) |
| C#CC1[C@H]2O[C@H]2c2ccccc2N1C(=O)OCC (stereo partly drawn) | > 100 | > 100 | > 100 | 66.5 (≈ 274 µM) |
| CCOC(=O)N1c2ccccc2C(=O)CC1C#Cc1ccccc1C#CCS(=O)(=O)c1ccccc1 (stereo not drawn) | 70 (≈ 141 µM) | 53.6 (≈ 108 µM) | 50.1 (≈ 101 µM) | 7.26 (≈ 14.6 µM) |
